Our source for the IC50 values is US9085576B2 (AMGEN INC., priority 2013, dated 2015).

pIC50: −log10 of the molar value. Where only a bound is given, the exact number is not on record here.

The target in experiment [1] is Cathepsin D (Cat D) (Homo sapiens (Human), UniProt P07339). The experiment can be described thus: In vitro enzymatic Cathepsin D (Cat D) FRET assay. Particulars: read-out: CatD IC50. It is filed as biochemical.
Description: In Vitro Enzymatic Cathepsin D (Cat D) FRET (Fluorescence Resonance Energy Transfer) Assay
Recombinant Cat D was expressed in CHO cells. The assay buffer for CathepsinD is 0.05 M citrate pH 3.5, 10% DMSO final, 5 mM CHAPS. […] The assays are effectively started by the addition of different FRET substrates (20 nM for Cat D) and the combination is incubated for one hour. The FRET assay is terminated with by addition of Tris buffer, which raises the pH to neutrality, and the fluorescence is determined. […] Proteolytic cleavage of the FRET substrate releases quenching of fluorescence (Cat D excitation 500 nm and emission 580 nm).
Experiment [2] has as its target Beta Secretase enzyme (BACE) (Homo sapiens (Human), UniProt P56817). Briefly: In vitro enzymatic BACE FRET assay. It is filed as biochemical. Particulars: read-out: BACE1 Enzyme assay IC50.
The target of experiment [3] is BACE (Homo sapiens (Human), UniProt P56817). Briefly: In vitro BACE cell-based assay (Aβ40 in conditioned medium, sandwich ELISA).
Chain of BACE (P56817 46-501, species assumed): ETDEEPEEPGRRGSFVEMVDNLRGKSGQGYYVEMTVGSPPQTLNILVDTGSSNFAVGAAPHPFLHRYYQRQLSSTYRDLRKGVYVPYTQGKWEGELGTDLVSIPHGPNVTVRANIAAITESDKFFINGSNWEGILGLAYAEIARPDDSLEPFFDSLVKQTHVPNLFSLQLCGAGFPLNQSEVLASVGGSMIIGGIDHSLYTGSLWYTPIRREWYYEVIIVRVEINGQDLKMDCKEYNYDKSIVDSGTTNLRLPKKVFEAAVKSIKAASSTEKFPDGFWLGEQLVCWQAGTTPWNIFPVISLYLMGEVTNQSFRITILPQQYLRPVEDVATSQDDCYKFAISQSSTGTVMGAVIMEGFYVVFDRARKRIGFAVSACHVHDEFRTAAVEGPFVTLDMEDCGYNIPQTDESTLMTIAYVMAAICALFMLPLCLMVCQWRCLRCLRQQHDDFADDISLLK

Chain of Beta Secretase enzyme (BACE) (P56817 46-501): as the sequence (P56817 46-501, species assumed) above
Chain of Cathepsin D (Cat D) (P07339 65-412, species assumed): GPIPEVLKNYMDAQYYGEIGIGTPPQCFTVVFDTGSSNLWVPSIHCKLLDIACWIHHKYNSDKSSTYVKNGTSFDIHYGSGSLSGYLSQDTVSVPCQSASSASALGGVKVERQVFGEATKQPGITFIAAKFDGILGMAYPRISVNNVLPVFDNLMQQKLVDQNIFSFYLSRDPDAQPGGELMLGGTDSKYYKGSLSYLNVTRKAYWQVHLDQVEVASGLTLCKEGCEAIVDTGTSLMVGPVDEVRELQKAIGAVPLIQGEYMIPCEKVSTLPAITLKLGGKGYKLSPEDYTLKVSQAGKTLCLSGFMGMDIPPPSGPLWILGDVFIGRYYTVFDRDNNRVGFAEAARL

Regarding `COc1cnc(C(=O)Nc2cc(F)c(Cl)c([C@@]3(CF)N=C(N)O[C@@H]4C[C@@H]43)c2)cn1` [Example 156, N-(3-((1R,5S,6R)-3-amino-5-(fluoromethyl)-2-oxa-4-azabicyclo[4.1.0]hept-3-en-5-yl)-4-chloro-5-fluorophenyl)-5-methoxypyrazine-2-carboxamide], the pIC50 (commonly the IC50 on a negative log10 scale, so that one unit is a factor of ten) is 3.05 in experiment [1] and 7.26 in experiment [2]. Inhibition in experiment [3] was half-maximal at 0.0199 µM (IC50).
Consider `Cc1cc(OC(F)F)cnc1C(=O)Nc1cc(F)c(Cl)c([C@]2(CF)N=C(N)O[C@H]3C[C@H]32)c1` [Example 157, N-(3-((1S,5R,6S)-3-amino-5-(fluoromethyl)-2-oxa-4-azabicyclo[4.1.0]hept-3-en-5-yl)-4-chloro-5-fluorophenyl)-5-(difluoromethoxy)-3-methylpicolinamide], for which the results for the pIC50 in experiment [1] and in experiment [2] were 3.40 and 4.55, respectively. The IC50 (as a rule, the concentration that gives 50% inhibition) in experiment [3] is greater than 15.6 µM.
For `Cc1cc(OC(F)F)cnc1C(=O)Nc1cc(F)c(Cl)c([C@@]2(CF)N=C(N)O[C@@H]3C[C@@H]32)c1` [Example 158, N-(3-((1R,5S,6R)-3-amino-5-(fluoromethyl)-2-oxa-4-azabicyclo[4.1.0]hept-3-en-5-yl)-4-chloro-5-fluorophenyl)-5-(difluoromethoxy)-3-methylpicolinamide], in that order: 3.64, 7.39 and 0.0383 µM.
Taken in the same sequence, the figures for `NC1=N[C@@](c2cc(NC(=O)c3cnc(OCC(F)(F)F)cn3)ccc2F)(C(F)F)[C@H]2C[C@H]2O1` [Example 160, N-(3-((1R,5S,6R)-3-amino-5-(difluoromethyl)-2-oxa-4-azabicyclo[4.1.0]hept-3-en-5-yl)-4-fluorophenyl)-5-(2,2,2-trifluoroethoxy)pyrazine-2-carboxamide] were 2.70, 7.54 and 0.0808 µM.
As to `CC(C)n1cc(Cl)c(C(=O)Nc2ccc(F)c([C@@]3(C(F)F)N=C(N)O[C@@H]4C[C@@H]43)c2)n1` [Example 161, N-(3-((1R,5S,6R)-3-amino-5-(difluoromethyl)-2-oxa-4-azabicyclo[4.1.0]hept-3-en-5-yl)-4-fluorophenyl)-4-chloro-1-isopropyl-1H-pyrazole-3-carboxamide], the negative-log IC50 (pIC50) in experiment [1] is 3.53; in experiment [2], less than 4.40. This compound also displayed an IC50 in experiment [3] greater than 15.6 µM.
Taken in the same sequence, the figures for `NC1=N[C@](CF)(c2cc(NC(=O)c3nn(C(F)F)cc3Cl)ccc2F)[C@H]2C[C@H]2O1` [Example 164, N-(3-((1R,5S,6R)-3-amino-5-(fluoromethyl)-2-oxa-4-azabicyclo[4.1.0]hept-3-en-5-yl)-4-fluorophenyl)-4-chloro-1-(difluoromethyl)-1H-pyrazole-3-carboxamide] were 3.02, 7.63 and 0.0109 µM.
Taken in the same sequence, the figures for `NC1=N[C@@](c2cc(NC(=O)c3cnc(OCc4nccs4)cn3)ccc2F)(C(F)F)[C@H]2C[C@H]2O1` [Example 165, N-(3-((1R,5S,6R)-3-amino-5-(difluoromethyl)-2-oxa-4-azabicyclo[4.1.0]hept-3-en-5-yl)-4-fluorophenyl)-5-(thiazol-2-ylmethoxy)pyrazine-2-carboxamide] were 3.42, 7.72 and 0.0606 µM.
With `Cc1nc(C(=O)Nc2ccc(F)c([C@@]3(C(F)F)N=C(N)O[C@@H]4C[C@@H]43)c2)co1` [Example 166, N-(3-((1R,5S,6R)-3-amino-5-(difluoromethyl)-2-oxa-4-azabicyclo[4.1.0]hept-3-en-5-yl)-4-fluorophenyl)-2-methyloxazole-4-carboxamide], the negative logarithm of the IC50 (pIC50) in experiment [1] was 3.43; in experiment [2], 7.21. In experiment [3], this compound gave an IC50 of 0.103 µM.
